Experimental data published in patent US8426447B2, “Spiro-tricyclic ring compounds as beta-secretase modulators and methods of use” (Amgen Inc., priority 2008, dated 2013).
pIC50: −log10 of the molar value. Each block holds one compound with its values, some of them ahead of it.

How the values were obtained:
BACE1 [1] = target: T1, BACE1 (Homo sapiens, UniProt P56817); experiment: In Vitro Enzymatic BACE FRET (Fluorescence Resonance Energy Transfer) Assay; assay type: biochemical; conditions: read-out: BACE1 FRET assay; for IC50: Table III, IC50's in uM ranges
In short: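 Cleavage of a 50 nM internally quenched peptide substrate is followed by fluorescence after a one-hour reaction in acidic acetate buffer, pH 4.2, terminated by Tris.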

BACE1 [2] = target: T1, BACE1; experiment: In Vitro BACE Cell-based Assay (HEK cell assay): Aβ40 in conditioned medium of cells stably expressing Amyloid Precursor Protein, sandwich ELISA; conditions: read-out: HEK cell assay; for IC50: Table III, IC50's in uM ranges
In short: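 Conditioned medium Aβ40 by ELISA: pAb40 capture 3 h 4° C., biotin-6E10 detection 2 h 4° C., Streptavidin-Europium TRF. IC50 fitted from % control.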

[3] = in vitro BACE FRET enzyme assay, IC50 class symbols
[4] = HEK cell-based assay, Aβ40 in conditioned medium, IC50 class symbols

T1 sequence (P56817 46-501, species assumed): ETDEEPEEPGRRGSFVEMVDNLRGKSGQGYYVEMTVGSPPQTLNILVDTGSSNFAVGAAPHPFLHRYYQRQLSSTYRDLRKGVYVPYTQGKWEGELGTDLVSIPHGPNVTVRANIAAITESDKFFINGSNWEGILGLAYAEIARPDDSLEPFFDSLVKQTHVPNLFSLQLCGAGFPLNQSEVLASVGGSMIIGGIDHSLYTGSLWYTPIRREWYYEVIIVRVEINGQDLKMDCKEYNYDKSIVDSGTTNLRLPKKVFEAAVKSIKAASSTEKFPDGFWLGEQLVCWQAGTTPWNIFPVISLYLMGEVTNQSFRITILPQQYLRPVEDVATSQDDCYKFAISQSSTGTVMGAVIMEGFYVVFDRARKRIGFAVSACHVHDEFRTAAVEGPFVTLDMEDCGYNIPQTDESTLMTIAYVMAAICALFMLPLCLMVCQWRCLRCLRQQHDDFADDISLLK

Compound: NC1=N[C@]2(CO1)c1cc(C3=CCNCC3)ccc1Oc1ccc(-c3cncnc3)cc12 [compound 964]
pIC50 (BACE1 [1]): > 7.00
pIC50 (BACE1 [2]): > 7.00

pIC50 (BACE1 [1]): 6.00 to 7.00
pIC50 (BACE1 [2]): < 5.30
Compound: CC(C)(C)COc1ccc2c(c1)[C@]1(COC(N)=N1)c1cc(-c3ccc(C#N)cc3)ccc1O2 [compound 972]

IC50 (BACE1 [1]): < 0.1 µM
IC50 (BACE1 [2]): 0.1 to 1 µM
Compound: CC(C)(C)CC(=O)c1ccc2c(c1)[C@]1(COC(N)=N1)c1cc(-c3ccc(F)nc3)ccc1O2 [150a]

IC50 (BACE1 [1]): 1 to 5 µM
IC50 (BACE1 [2]): 1 to 5 µM
Compound: CC(C)(O)C#Cc1ccc2c(c1)C1(COC(N)=N1)c1cc(C#CC(C)(C)O)ccc1O2 [compound 118]

IC50 (BACE1 [1]): < 0.1 µM
IC50 (BACE1 [2]): < 0.1 µM
Compound: C=C(C)COc1ccc2c(c1)[C@]1(COC(N)=N1)c1cc(-c3cncnc3)ccc1O2 [compound 139]

pIC50 (BACE1 [1]; Table IV, class symbols): 6.00 to 7.00
pIC50 (BACE1 [2]; Table IV, class symbols): 6.00 to 7.00
Compound: COc1ccc2c(c1)[C@]1(COC(N)=N1)c1cc(NC(=O)C3CCCO3)ccc1O2 (stereo partly drawn) [compound 614]

pIC50 (BACE1 [1]; Table IV, class symbols): 6.00 to 7.00
pIC50 (BACE1 [2]; Table IV, class symbols): 6.00 to 7.00
Compound: CC(C)(C)C#Cc1cnc2c(c1)[C@@]1(COC(N)=N1)c1cc(-c3cncnc3)cc(F)c1O2 [compound 538]

pIC50 (BACE1 [1]): 6.00 to 7.00
pIC50 (BACE1 [2]): 5.30 to 6.00
Compound: Cc1occc1-c1ccc2c(c1)[C@@]1(COC(N)=N1)c1cc(OCC(C)(C)C)ccc1O2 [compound 739]

pIC50 (BACE1 [1]; Table IV, class symbols): > 7.00
pIC50 (BACE1 [2]; Table IV, class symbols): > 7.00
Compound: COc1cncc(-c2ccc3c(c2)[C@@]2(COC(N)=N2)c2cc(C#CC(C)(C)OC)cnc2O3)c1 [compound 602]

pIC50 (BACE1 [1]; [3]): > 7.00
pIC50 (BACE1 [2]; [4]): > 7.00
Compound: NC1=N[C@@]2(CO1)c1cc(-c3cccnc3F)ccc1Oc1ncc(-c3ccncc3)cc12 [compound 403]

pIC50 (BACE1 [1]; [3]): 6.00 to 7.00
pIC50 (BACE1 [2]; [4]): > 7.00
Compound: Cc1cc(-c2ccc3c(n2)[C@]2(COC(N)=N2)c2cc(-c4cccnc4F)ccc2O3)ccn1 [compound 401]

pIC50 (BACE1 [1]; Table 1): < 5.30
pIC50 (BACE1 [2]; Table 1, Aβ40, 24 h incubation): 5.30 to 6.00
Compound: COc1ccc2c(c1)C1(COC(N)=N1)c1cc(-c3ccccc3C)ccc1O2 (stereo not drawn) [Example 32, 2′-methoxy-7′-(2-methylphenyl)spiro[1,3-oxazole-4,9′-xanthen]-2-amine]

IC50 (BACE1 [1]): < 0.1 µM
IC50 (BACE1 [2]): 0.1 to 1 µM
Compound: NC1=N[C@]2(CO1)c1cc(Oc3ccccn3)ccc1Oc1ccc(-c3cncnc3)cc12 [compound 209]

pIC50 (BACE1 [1]; [3]): > 7.00
pIC50 (BACE1 [2]; [4]): > 7.00
Compound: CC(C)(F)COc1cnc2c(c1)[C@]1(COC(N)=N1)c1cc(-c3cccc(C#N)c3)ccc1O2 [compound 357]

pIC50 (BACE1 [1]): 6.00 to 7.00
pIC50 (BACE1 [2]): 5.30 to 6.00
Compound: CC(C)(C)COc1ccc2c(c1)[C@]1(COC(N)=N1)c1cc(-c3ncc[nH]3)ccc1O2 [compound 979]

pIC50 (BACE1 [1]): > 7.00
pIC50 (BACE1 [2]; HEK cells): > 7.00
Compound: CC1(C#Cc2cc(F)c3c(c2)[C@]2(COC(N)=N2)c2cc(-c4cncnc4)ccc2O3)COC1 [compound 475]

pIC50 (BACE1 [1]; Table IV, class symbols): > 7.00
pIC50 (BACE1 [2]; Table IV, class symbols): > 7.00
Compound: NC1=N[C@@]2(CO1)c1cc(-c3ccc(F)cc3)ccc1Oc1ncc(C3=CCOCC3)cc12 [compound 583]

pIC50 (BACE1 [1]; Table IV, class symbols): 6.00 to 7.00
pIC50 (BACE1 [2]; Table IV, class symbols): 6.00 to 7.00
Compound: CC(C)(C)COc1ccc2c(c1)[C@]1(COC(N)=N1)c1cc(C(=O)N3CCCCC3)ccc1O2 [compound 873]

pIC50 (BACE1 [1]): < 5.30
pIC50 (BACE1 [2]): < 5.30
Compound: NC1=N[C@@]2(CO1)c1cc(-c3cncnc3)ccc1Oc1cc(OCC(F)(F)F)c(F)cc12 [compound 987]

pIC50 (BACE1 [1]; Table IV, class symbols): > 7.00
pIC50 (BACE1 [2]; Table IV, class symbols): 6.00 to 7.00
Compound: COc1cccc(-c2ccc3c(c2)[C@]2(COC(N)=N2)c2cc(-c4cncnc4)ccc2O3)c1 [compound 893]

IC50 (BACE1 [1]): < 0.1 µM
IC50 (BACE1 [2]): 0.1 to 1 µM
Compound: Cc1ccccc1-c1ccc2c(c1)[C@]1(COC(N)=N1)c1cc(-c3cncnc3)ccc1O2 [compound 220]

pIC50 (BACE1 [1]; Table II): > 7.00
pIC50 (BACE1 [2]; Table II, Aβ40, 24 h incubation): 6.00 to 7.00
Compound: CC(C)(C)COc1ccc2c(c1)[C@]1(COC(N)=N1)c1cc(-c3cc(Cl)ccc3F)ccc1O2 [Example 75, (4S)-2′-(5-chloro-2-fluorophenyl)-7′-(2,2-dimethylpropoxy)spiro[1,3-oxazole-4,9′-xanthen]-2-amine]

pIC50 (BACE1 [1]): > 7.00
pIC50 (BACE1 [2]): > 7.00
Compound: CC(C)(C)COc1ccc2c(c1)[C@]1(CSC(N)=N1)c1cc(-c3cncnc3)ccc1O2 [compound 720]

IC50 (BACE1 [1]): < 0.1 µM
IC50 (BACE1 [2]): < 0.1 µM
Compound: CC(C)(C)COc1ccc2c(c1)[C@]1(COC(N)=N1)c1cc(-c3cnccn3)ccc1O2 [Example 131, (S)-2′-(neopentyloxy)-7′-(pyrazin-2-yl)-5H-spiro[oxazole-4,9′-xanthen]-2-amine]

pIC50 (BACE1 [1]; Table IV, class symbols): > 7.00
pIC50 (BACE1 [2]; Table IV, class symbols): > 7.00
Compound: COCC(=O)Nc1ccc2c(c1)[C@@]1(COC(N)=N1)c1cc(-c3ccccc3)ccc1O2 [compound 533]

pIC50 (BACE1 [1]): > 7.00
pIC50 (BACE1 [2]; HEK cells): > 7.00
Compound: NC1=N[C@@]2(CO1)c1cc(-c3cccnc3)ccc1Oc1cc(F)c(C3=CCOCC3)cc12 [compound 476]

pIC50 (BACE1 [1]): > 7.00
pIC50 (BACE1 [2]; HEK cells): > 7.00
Compound: Cn1cc(-c2cc(F)c3c(c2)[C@]2(COC(N)=N2)c2cc(-c4cncnc4)ccc2O3)cn1 [compound 511]
